The test system of test [1] is bile duct-ligated (BDL) rats. Kind of test: Serum markers of liver function in bile duct-ligated (BDL) rats. It counts as in vivo, Sprague-Dawley rats. Particulars: GW4064 100 mg/kg daily i.p. for 7 days. On the procedure: (§1) Male Sprague-Dawley rats (approximately 300 grams) were obtained from Charles River Laboratories Inc (Raleigh, N.C.) and were maintained on a 12 hour light/12 hour dark light cycle. Animals were anesthetized by the administration of 2-3% isoflurane. Laparotomy was performed under sterile technique and the liver and duodenum gently displaced to reveal the common bile duct. The bile duct was separated from the surrounding tissue and two ligatures of 4-0 Ethilon were placed around it. The bile duct was clamped between the two ligatures with an aneurysm clamp and the ligatures drawn tight. An additional ligature was placed proximal to the first (near the liver). The clamp was removed and the bile duct severed between the ligatures. The muscle wall was closed with 4-0 Vicryl and the skin closed with staples. Animals were allowed to recover for 24 hours prior to administration of drug (GW4064, 100 mg/kg daily in corn oil/10% DMSO) or vehicle alone (in corn oil/10% DMSO) by a daily intra-peritoneal injection for 7 days prior to sacrifice. Animals were allowed food and water ad libitum throughout the study period. Animals were anesthetized with 2-3% isoflurane and sacrificed by cardiac puncture.
Serum levels of alanine aminotransferase (ALT), asparate aminotransferase (AST), total bilirubin (TBILI), and γ-glutamyl transferase (GGT) were determined using an Instrumentation Laboratory Ilab600 clinical chemistry analyzer. Serum bile acids (BILEA) were determined using a commercially available assay (Sigma Chemical Co., St Louis, Mo.).

Test [2] deals with bile duct-ligated (BDL) rats. As to the kind of experiment: Histological examination of liver samples from BDL rats. It counts as in vivo, Sprague-Dawley rats. Particulars: GW4064 100 mg/kg daily i.p. for 7 days. Here is the method:
as §1
A section of the liver was removed and placed into 10% neutral buffered formalin. […]

Consider `CC(C)c1onc(-c2c(Cl)cccc2Cl)c1COc1ccc(/C=C/c2cccc(C(=O)O)c2)c(Cl)c1` [GW4064], for which the “Liver function as defined by the panel of enzymes examined” value in test [1] was “pronounced improvement in liver function”. For the same compound, in test [1] (corn oil/10% DMSO), the “Serum level of ALT, as % of that in BDL rats receiving vehicle alone” value is 23%; the “Serum level of AST, as % of that in BDL rats receiving vehicle alone” value was found to be 27%; the “Serum level of GGT, as % of that in BDL rats receiving vehicle alone” value came to 34%; the “Serum level of TBILI, as % of that in BDL rats receiving vehicle alone” value came out at 49%. In test [2], the “Liver histology: bile duct proliferation” value was “only bile duct proliferation”. Moreover, the “Liver histology: necrosis” value in test [2] (vehicle-treated showed large areas of necrosis) is reported as “no necrosis”.

The values are drawn from US6987121B2, “Compositions and methods for hepatoprotection and treatment of cholestasis” (SmithKline Beecham Corporation, priority 2002, dated 2006).
